Each compound was assayed against T1, TDO2 (Homo sapiens, UniProt P48775) (assay: TDO2 cell assay (NFK GreenScreen, SW48 cells)). Details: SW48 cells (high TDO expressing), 200 uM tryptophan, 24 hours; Table 3; read-out: TDO2 Cell Fluor EC50.
T1 construct: decreased levels of NFK in SW48 cells (high TDO expressing cells)
Assay type: cell-based

T1 sequence (P48775 whole entry): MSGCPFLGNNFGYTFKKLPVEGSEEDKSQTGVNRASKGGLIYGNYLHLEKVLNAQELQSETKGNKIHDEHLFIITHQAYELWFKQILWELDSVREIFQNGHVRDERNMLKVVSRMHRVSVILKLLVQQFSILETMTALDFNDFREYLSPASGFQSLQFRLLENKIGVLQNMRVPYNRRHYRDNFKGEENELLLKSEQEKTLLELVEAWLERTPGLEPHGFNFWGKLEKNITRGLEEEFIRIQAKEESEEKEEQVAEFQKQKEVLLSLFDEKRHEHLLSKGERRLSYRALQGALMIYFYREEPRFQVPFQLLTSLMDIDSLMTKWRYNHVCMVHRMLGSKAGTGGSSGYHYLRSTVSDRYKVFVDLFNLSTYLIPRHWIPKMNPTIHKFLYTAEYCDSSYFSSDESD

Row | EC50 | SMILES
1 | 0.89 µM | O=S1(=O)CC(C2c3ccccc3-c3cncn32)C(O)c2ccccc21 (racemic) [Example 96a, 4-hydroxy-3-(5H-imidazo[5,1-a]isoindol-5-yl)thiochromane 1,1-dioxide]
2 | 0.17 µM | O[C@H]1[C@H]([C@H]2c3ccccc3-c3cncn32)CCCC1(F)F (single isomer, unassigned) [Example 106b]
3 | 1.4 µM | Cn1ncc2c1CCC(C1c3ccccc3-c3cncn31)C2O (single isomer, unassigned) [Example 93c]
4 | > 25 µM | OC1c2nccn2CCC1C1c2ccccc2-c2cncn21 (single isomer, unassigned) [Example 88a]
5 | 0.52 µM | O[C@@H]1c2c(F)cnn2CC[C@@H]1[C@@H]1c2ccccc2-c2cncn21 [Example 151a, (4S,5R)-3-fluoro-5-((R)-5H-imidazo[5,1-a]isoindol-5-yl)-4,5,6,7-tetrahydropyrazolo[1,5-a]pyridin-4-ol]
6 | > 25 µM | OC1c2nccn2CCC1C1c2ccccc2-c2cncn21 (single isomer, unassigned) [Example 88e]
7 | 0.2 µM | O[C@H]1c2c(Cl)cnn2CC[C@H]1[C@H]1c2ccccc2-c2cncn21 [Example 160b, (4R,5S)-3-chloro-5-((S)-5H-imidazo[5,1-a]isoindol-5-yl)-4,5,6,7-tetrahydropyrazolo[1,5-a]pyridin-4-ol]
8 | > 25 µM | N#Cc1cc2n(n1)CCC(C1c3ccccc3-c3cncn31)C2O (single isomer, unassigned) [Example 174a]
9 | 2.5 µM | CN(C)C(=O)c1ccc2c(c1)CCC(C1c3ccccc3-c3cncn31)C2O (single isomer, unassigned) [Example 98f]
10 | 11 µM | OC1c2cnccc2CC1C1c2ccccc2-c2cncn21 (single isomer, unassigned) [Example 71e]
11 | > 25 µM | CCS(=O)(=O)N1CCC(O)C(C2c3ccccc3-c3cncn32)C1 (single isomer, unassigned) [Example 15d]
12 | 8.3 µM | O[C@@H]1c2ccncc2CC[C@@H]1[C@@H]1c2ccccc2-c2cncn21 (single isomer, unassigned) [Example 08g]
13 | 7.4 µM | NS(=O)(=O)c1ccc2c(c1)CCC(C1c3ccccc3-c3cncn31)C2O (single isomer, unassigned) [Example 100c]
14 | 3 µM | NS(=O)(=O)N1CCC2(CC1)CC(C1c3ccccc3-c3cncn31)C2O (single isomer, unassigned) [Example 181d]
15 | > 25 µM | CC1(C)CCC(C2c3ccccc3-c3cncn32)C1O (single isomer, unassigned) [Example 23a]
16 | > 25 µM | Cn1ncc2c1CCC(C1c3ccccc3-c3cncn31)C2O (single isomer, unassigned) [Example 93g]
17 | 23 µM | NC(=O)c1ccc2c(n1)CCC(C1c3ccccc3-c3cncn31)C2O (single isomer, unassigned) [Example 104c]
18 | > 25 µM | OC1c2nccn2CCC1C1c2ccccc2-c2cncn21 (single isomer, unassigned) [Example 88b]
19 | 2 µM | CC1(C)COCC(C2c3ccccc3-c3cncn32)C1O (single isomer, unassigned) [Example 66d]
20 | > 25 µM | OC1c2cnnn2CCC1C1c2ccccc2-c2cncn21 (single isomer, unassigned) [Example 139a]
21 | > 25 µM | O[C@@H]1CCOC[C@H]1[C@@H]1c2ccccc2-c2cncn21 [Example 05c, (3R,4R)-3-((R)-5H-imidazo[5,1-a]isoindol-5-yl)-tetrahydro-2H-pyran-4-ol]
22 | 16 µM | OC1CCCCC1C1c2ccccc2-c2cncn21 (single isomer, unassigned) [Example 03e]
23 | > 25 µM | O[C@@H]1c2c(Cl)cnn2CC[C@@H]1[C@@H]1c2ccccc2-c2cncn21 [Example 160a, (4S,5R)-3-chloro-5-((R)-5H-imidazo[5,1-a]isoindol-5-yl)-4,5,6,7-tetrahydropyrazolo[1,5-a]pyridin-4-ol]

Further lines, the compound ahead of its results:

Row | SMILES | EC50
24 | O[C@H]1CN(CC(F)(F)F)CC[C@@H]1[C@H]1c2ccccc2-c2cncn21 [Example 82a, (3R,4R)-4-((S)-5H-imidazo[5,1-a]isoindol-5-yl)-1-(2,2,2-trifluoroethyl)piperidin-3-ol] | 4.4 µM
25 | OC(C1c2ccccc2-c2cncn21)C1(F)CC1 (single isomer, unassigned) [Example 154a] | 0.13 µM
26 | OC1CC2(CCC2)C1C1c2ccccc2-c2cncn21 (single isomer, unassigned) [Example 67e] | 0.044 µM
27 | O[C@@H]1CCOC[C@H]1[C@@H]1c2ccc(F)cc2-c2cncn21 [Example 34d, (3R,4R)-3-((R)-8-fluoro-5H-imidazo[5,1-a]isoindol-5-yl)-tetrahydro-2H-pyran-4-ol] | 0.23 µM
28 | CS(=O)(=O)N1CCC(O)(C2c3ccccc3-c3cncn32)C1 (single isomer, unassigned) [Example 116b] | 2.5 µM
29 | CC(C)C(O)C1c2ccc(F)cc2-c2cncn21 (single isomer, unassigned) [Example 135a] | > 25 µM
30 | OC1CCOCC1C1c2cccc(F)c2-c2cncn21 (single isomer, unassigned) [Example 170c] | > 25 µM
31 | CC1(C)CCCCC1(O)C1c2ccccc2-c2cncn21 (single isomer, unassigned) [Example 164b] | 7.5 µM
32 | C[C@H](O)[C@@H]1c2ccccc2-c2cncn21 [Example 42d, (S)-1-((S)-5H-imidazo[5,1-a]isoindol-5-yl)ethan-1-ol] | 23.7 µM
33 | CC1(C)C[C@@H](O)[C@H]1[C@@H]1c2ccccc2-c2cncn21 [Example 22e, (1R,2R)-2-((R)-5H-imidazo[5,1-a]isoindol-5-yl)-3,3-dimethylcyclobutan-1-ol] | 3.5 µM
34 | OC1CC2(COC2)C1C1c2ccccc2-c2cncn21 (single isomer, unassigned) [Example 87e] | 14 µM
35 | OC1COCCC1C1c2c(Cl)cccc2-c2cncn21 (single isomer, unassigned) [Example 69-1a] | > 25 µM
36 | O[C@@H]1CC(CF)(CF)[C@@H]1[C@H]1c2ccccc2-c2cncn21 [Example 150a, (1R,2R)-3,3-bis(fluoromethyl)-2-((S)-5H-imidazo[5,1-a]isoindol-5-yl)cyclobutan-1-ol] | 12 µM
37 | OC1CCCCC1C1c2ccc(F)cc2-c2cncn21 (single isomer, unassigned) [Example 25b] | > 25 µM
38 | CC1(C)OC(C)(C)C(C2c3ccccc3-c3cncn32)C1O (single isomer, unassigned) [Example 84f] | > 25 µM
39 | OC1C(C2c3ccccc3-c3cncn32)CC12CCOCC2 (single isomer, unassigned) [Example 57c] | 0.4 µM
40 | OC1COCCC1C1c2cccc(F)c2-c2cncn21 (single isomer, unassigned) [Example 99b] | > 25 µM
41 | OC1C(C2c3ccccc3-c3cncn32)CCC12CCOCC2 (single isomer, unassigned) [Example 68b] | 7.4 µM
42 | OC1C(C2c3ccccc3-c3cncn32)CC12CCOCC2 (single isomer, unassigned) [Example 57f] | 0.73 µM
43 | OC1(C2c3ccccc3-c3cncn32)CCC(F)(F)CC1 (racemic) [Example 53, 4,4-difluoro-1-(5H-imidazo[5,1-a]isoindol-5-yl)cyclohexan-1-ol] | 0.17 µM
44 | OC1C(C2c3ccccc3-c3cncn32)CCC12CCOCC2 (single isomer, unassigned) [Example 68c] | > 25 µM
